Data on 8 compounds can be found in US9199931B2, “Pyrrolidine derivatives” (UNIVERSITE CLAUDE BERNARD LYON I, priority 2012, dated 2015).

The subject of data set [1] is extracellular glutamate (Glu) and aspartate (Asp) levels, striatum. Kind of data set: in vivo intracerebral microdialysis: extracellular glutamate and aspartate levels in striatum. Particulars: for effect on extracellular Glu and Asp levels: 1 mmol/L by reverse microdialysis, striatum, anesthetized rats; for action on glutamate when the glutamate levels are high: rat brain, initial glutamate level high, notably greater than 10 μmol/L; for Effect on Glu end/or Asp: striatum of anesthetized rats, reverse microdialysis; for effect of co-administration of CNQX on the compound's effects: compound at 1 mmol/L co-administered with CNQX, Asp levels are increased. Details: species or system rat (Wistar). An excerpt:
One of the widespread methodological approaches, both in academic laboratories and in industrial laboratories, and used for following the extracellular concentrations of glutamate (Glu) and of aspartate (Asp) before, during and after administration of pharmacological agents targeting their receptors is intracerebral microdialysis. This type of test was therefore used, in order to track the in vivo effects of the molecules according to the invention as compared with those of kainic acid, for which the synthesized molecules are structural analogues (substituted pyrrolidines).
Concentric microdialysis probes with a regenerated cellulose membrane (Spectra/Por hollow fiber; molecular cut off 6,000 Da, 225 μm in external diameter, a length of 3 mm, Spectrum Medical Industries, Los Angeles, Calif., USA) and tubings in molten silica (40 μm i.d×105 μm o.d., Polymicro Technology, Phoenix, Ariz., USA) were manufactured according to a design already published (Bert et al 1996, [26]). They were perfused with a flow rate of 1 μl/min with artificial cerebrospinal fluid or CSF (145.0 mM NaCl; […]; 1.0 mM MgCl2; 1.2 mM CaCl2; 0.45 mM NaH2PO4; 1.55 mM Na2HPO4; pH 7.4) by means of a Harvard pump (Model 22, South Natick, Mass., USA).
The in vivo microdialysis experiments were conducted on male rats of the Wistar strain with an average weight of about 300 g, (provider: Charles River, L'Arbresle, France) anesthetized with urethane (a dose of 1.4 g/kg via an i.p, route, provider: Sigma-Aldrich, St. Louis, Mo., USA). The probes were implanted dorso lateral striatum according to the following stereotaxic coordinates relatively to the bregma: antero-posteriority 0 mm, laterality […], depth […] under the cortical surface. The dialysates (samples) were collected from the beginning of the 4th hour after implantation of the probe. The samples were taken every 5 minutes in PCR tubes of 200 μl (Axygene, Union City, Calif., USA) and immediately frozen at −20° C. The samples were analyzed subsequently in order to determine the glutamate and aspartate contents. The pharmacological agents and the compounds according to the invention were administered in situ by reverse microdialysis by changing the perfusion at the inlet of the probe of the CSF without any pharmacological agent to the one containing the pharmacological agent(s) (Bert et al., 2002 [27]; Parrot et al 2003 [28]).
CE analyses were carried out with a P/ACE MDQ system (Beckman-Coulter, Fullerton, Calif., USA) equipped with an external detector LIF ZETALIF (Picometrics, Toulouse, France). Detection was achieved by fluorescence at a wavelength of 442 nm and generated with a He—Cd laser Omnichrome (Chino, Calif., USA). The emission intensity was collected at 490 nm. Before analysis, the samples were derived with naphthalene-2,3-dicarboxaldehyde with cyanide ions as a nucleophilic agent (pH 8.7; borate buffer 500 mM). The separations were conducted in a capillary of molten silica with an internal diameter of […] and an outer diameter of 375 μm with a length of 63 cm, with a useful length of 52 cm (Polymicro Technology) by using the procedure entirely detailed and validated earlier (Sauvinet et al., 2003 [29] Bert et al., 2002 (271). The Glu and Asp concentrations measured in striatum samples were above detection limits and were determined by interpolation by means of standard ranges.
All the reagents of the neurochemical study (except for the compound according to the invention) were purchased from Sigma-Aldrich (St Louis, Mo., USA). The mother-solutions of the synthesized molecules, of the kainate (KA, agonist of the KA receptors for glutamate), CNQX, 6-cyano-7-nitroquinoxaline-2,3(1H,4H)-dione (CAS-No. 115066-14-3, antagonist of KA receptors), from Glu and Asp were aliquoted to 1 or 0.1 mM and stored at −30° C. After their administration, the tested pharmacological agents were diluted in artificial CSF. […]

The nature of data set [2]: inflow through in vitro model of the choroidal epithelium (blood/cerebrospinal fluid barrier). In kind it is in vitro ADME. Particulars: rat; basolateral exposure at 150 μm for 60 minutes, 37° C.; read-out: penetration rate of the peripheral blood compartment towards the brain compartment. The method, then:
A study was conducted with the BIP platform (Centre de Recherche en Neurosciences de Lyon, Lyons, France) for comparing the inflow of four compounds of interest through the cerebrospinal liquid/blood barrier. The study was carried out with an in vitro model of the choroidal epithelium restoring this interface. Choroidal cells were exposed by their basolateral pole to the compounds at a concentration of 150 μm for 60 minutes. The permeability of the cell monolayers to saccharose was analyzed in terms of these transfers, in order to detect possible toxicity of the compounds.
The epithelial cells are isolated from the choroidal plexus of a lateral ventricle taken on newly born rats as described earlier. The cells are sown on microporous supports (Transwell PC, pore size 0.4 μm, surface area […], diameter 6.5 mm), and cultivated in DMEM-F12 (1:1) supplemented with 10% FCS, 2 mM glutamine and 50 μg/ml gentamycin, as well as with various growth factors. The medium is renewed every two days until the day of experiment.
The transfer measurements were conducted under kinetic conditions (3 phases), with stirring (200 rpm), at 37° C., in a Ringer-Hepes buffer (RH). The volumes used in both compartments during the transfer are adjusted so as to minimize any hydrostatic pressure effect. The inserts are rinsed in RH before initiating the permeability study. For each compound, the transfer is carried out in parallel on three laminin inserts (without any cell) and three inserts with a cell monolayer.
Inflow measurements (from blood to the cerebrospinal fluid) were conducted during a kinetic study (20 min periods) for the four compounds of interest. Briefly, the compound of interest, diluted to 150 μm in RH is placed in the lower compartment of a multi-well cultivation plate, which reproduces the blood compartment. Transfer is initiated by placing a culture insert containing RH in the upper compartment, which corresponds to the cerebrospinal fluid. At regular intervals, an aliquot of the upper medium is taken and replaced with an equivalent volume of preheated RH at 37° C. […] The samples taken are analyzed by high performance liquid chromatography (HPLC) on an LC10 Shimadzu system chain (Duisburg, Germany), equipped with a spectrophotometric detector.
At the end of the transfer of the compounds of interest, [^14C]-saccharose is added as an aliquot into the upper compartment of the inserts. […] The media sampled in the wells and in the inserts at the end of the transfer of saccharose are analyzed by liquid scintillator counting in a β Canberra Packard TRI-GARB 1600TR counter. […]
The permeability coefficient of the cell monolayer Pe (in cm·min^−1) is calculated from the PS determined on laminin filters and filters with cells and by taking into account the exchange surface area. […]

Data set [3] concerns glutamate levels in the striatum. Particulars: ex vivo and in vivo preparations, refs [89-92]; cited from earlier work.
Data set [4] addresses CB1 (receptors of type 1 to endocannabinoids, CB-1) (Homo sapiens, UniProt P21554). Kind of data set: in vitro specific binding inhibition (radioligand, 60 receptors). To be noted: n = 2, read-out: % of inhibition of the control specific binding at 10 μM, CB1 towards its agonistic ligand. On the procedure: In order to determine the target receptors of the compounds according to the invention, experiments of specific binding inhibition were conducted in vitro. Pharmacology in vitro: tests of specific bindings.
Sixty receptors were tested in the study according to standardized methods by using their specific radioligand as reported earlier.
The results may be expressed as a % of the specific control bond [(measured specific bond/control specific bond)×100] and as a % of inhibition of the specific control bond [100−(measured specific bond/control specific bond)×100] obtained in the presence of one of the two tested compounds (I.2 and I.4).
These experiments (Table 2 hereafter) have shown that the compounds I.2 and I.4 modify the specific binding of a control agonist of the receptors of type 1 to endocannabinoids (CB-1) (according to the test described in reference).

As usually defined, the melting point is the temperature of the solid-liquid transition. By inhibition is commonly meant the percentage by which the read-out fell short of the control.

SMILES strings stand for the structures. “Also recorded” adds a separate entry of the source. A value given as a limit tells only on which side of the number the result lay.

CB1 (receptors of type 1 to endocannabinoids, CB-1), sequence (P21554 whole entry): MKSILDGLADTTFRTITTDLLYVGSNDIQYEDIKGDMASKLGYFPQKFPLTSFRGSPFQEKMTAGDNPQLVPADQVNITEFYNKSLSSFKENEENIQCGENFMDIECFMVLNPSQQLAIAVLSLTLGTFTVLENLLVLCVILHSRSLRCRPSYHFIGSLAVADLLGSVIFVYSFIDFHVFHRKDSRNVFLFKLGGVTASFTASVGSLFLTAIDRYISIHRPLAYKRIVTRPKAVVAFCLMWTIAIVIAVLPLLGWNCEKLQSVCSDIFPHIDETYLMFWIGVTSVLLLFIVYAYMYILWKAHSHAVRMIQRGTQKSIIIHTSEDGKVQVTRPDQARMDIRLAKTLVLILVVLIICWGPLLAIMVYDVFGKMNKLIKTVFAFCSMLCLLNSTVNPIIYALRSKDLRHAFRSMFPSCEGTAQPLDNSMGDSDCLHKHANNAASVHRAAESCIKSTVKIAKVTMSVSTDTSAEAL

Regarding `N[C@H](C(=O)O)[C@H]1CNC[C@H]1O` [Compound I.1, (αS,3R,4S) α-amino-(4-hydroxy-pyrrolidin-3-yl)acetic acid], in data set [1], the “effect on extracellular Glu and Asp levels” value is “effects similar to KA”; the “action on glutamate when the glutamate levels are high” value (from here on “action on glutamate”) is “inhibitory actions on the glutamate”. Further, in data set [1] (summary of preliminary results), the “Pharmacological potentiality for modulating the Glu system” value (from here on “Pharmacological potentiality”) is recorded as “Yes” and the “Effect on Glu end/or Asp” value was “Yes”. Besides, in data set [2], the Papp B→A at 60 min, 150 μm was not above 5 ×10⁻⁶ cm/s.
As to `CNC(=O)[C@H](NC(C)=O)[C@@H]1CNC[C@@H]1O` [Compound I.3, α-acetamido-(4-hydroxy-pyrrolidin-3-yl)-N-methylacetamide(αR,3S,4R)], in data set [1], the “effect on extracellular Glu and Asp levels” value is reported as “an effect similar to that of kainate”; the “effect of co-administration of CNQX on the compound's effects” value (from here on “effect of co-administration of CNQX”) is on record as “seems to partly attenuate its effects”; the “action on glutamate” value is on record as “inhibitory actions on the glutamate”. In addition, in data set [1] (summary of preliminary results), the “Pharmacological potentiality” value was “yes” and the “Effect on Glu end/or Asp” value was “yes”. Further, the Papp B→A at 60 min, 150 μm in data set [2] was not above 5 ×10⁻⁶ cm/s.
On to `Cc1c(C(=O)NN2CCCCC2)nn(-c2ccc(Cl)cc2Cl)c1-c1ccc(Cl)cc1` [rimonabant], for which the “effect on glutamate levels in the striatum” value in data set [3] is “cause an increase or do not affect the extracellular glutamate levels”.
On to `CN[C@H](C(=O)O)[C@H]1CNC[C@H]1O` (racemic) [Compound I.5, (3,4-cis).α-N-methylamino-(4-hydroxy-pyrrolidin-3-yl)acetic acid], for which the melting point amounted to 192 °C.
Turning to `Cc1c(C(=O)c2cccc3ccccc23)c2cccc3c2n1[C@H](CN1CCOCC1)CO3` [WIN 55, 212-2], the “effect on glutamate levels in the striatum” value in data set [3] is on record as “induces a reduction in the glutamate levels”.
As for `CNC(=O)[C@@H](N)[C@H]1CNC[C@H]1O` [Compound I.4, .-amino-(4-hydroxy-pyrrolidin-3-yl)-N-methylacetamide(αS,3R,4S)], in data set [1], the “effect on extracellular Glu and Asp levels” value is “a reduction in the Glu and Asp levels; also recorded: a reduction in the cerebral extracellular glutamate levels”; the “effect of co-administration of CNQX” value is “seems to partly attenuate its effects”; the “action on glutamate” value is given as “inhibitory actions on the glutamate”. Further, in data set [1] (summary of preliminary results), the “Pharmacological potentiality” value was “yes” and the “Effect on Glu end/or Asp” value was “yes”. For the same compound, the inhibition at 10 µM in data set [4] came out at 29%. Moreover, the Papp B→A at 60 min, 150 μm in data set [2] is not above 5 ×10⁻⁶ cm/s.
In the case of `C=C(C)[C@H]1CN[C@H](C(=O)O)[C@H]1CC(=O)O` [KA, kainate, reference compound], in data set [1], the “effect on extracellular Glu and Asp levels” value is listed as “affected”.
Consider `N[C@@H](C(=O)O)[C@@H]1CNC[C@@H]1O` [Compound I.2, (αR,3S,4R) α-amino-(4-hydroxy-pyrrolidin-3-yl)acetic acid], for which, in data set [1], the “effect on extracellular Glu and Asp levels” value is “a reduction in the Glu and Asp levels; also recorded: a reduction in the cerebral extracellular glutamate levels”; the “effect of co-administration of CNQX” value is reported as “seems to partly attenuate its effects”; the “action on glutamate” value is “inhibitory actions on the glutamate”. For the same compound, in data set [1] (summary of preliminary results), the “Pharmacological potentiality” value is “Yes” and the “Effect on Glu end/or Asp” value is given as “Yes”. For the same compound, the “Action through the KA receptors” value in data set [1] (summary of preliminary results, co-administration of CNQX (antagonist of KA receptors)) is listed as “yes for Asp”. In data set [4], the inhibition at 10 µM worked out at 29%. For the same compound, the Papp B→A at 60 min, 150 μm in data set [2] was not above 5 ×10⁻⁶ cm/s.
